The source of these data is patent publication US9963441B2, “Histone demethylase inhibitors” (CELGENE QUANTICEL RESEARCH, INC., priority 2013, dated 2018).

The assay concerns the target T1, JMJD2C (Homo sapiens, UniProt Q9H3R0).
T1 construct: purchased BPS Bioscience 50105
T1 sequence (Q9H3R0 2-372): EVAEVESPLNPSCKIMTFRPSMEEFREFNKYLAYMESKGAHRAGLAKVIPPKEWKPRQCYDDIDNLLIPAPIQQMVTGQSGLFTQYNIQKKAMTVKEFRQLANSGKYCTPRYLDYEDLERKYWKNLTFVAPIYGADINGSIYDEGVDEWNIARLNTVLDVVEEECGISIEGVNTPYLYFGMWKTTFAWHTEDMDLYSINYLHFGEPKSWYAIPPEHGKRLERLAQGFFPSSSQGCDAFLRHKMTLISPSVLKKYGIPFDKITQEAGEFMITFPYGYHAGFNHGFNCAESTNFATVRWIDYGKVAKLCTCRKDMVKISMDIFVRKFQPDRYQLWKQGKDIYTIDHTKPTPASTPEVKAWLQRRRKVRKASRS
Nature of the assay: JMJD2C in vitro enzyme inhibition assay (TR-FRET). The class given is biochemical. (In general: TR-FRET usually uses a lanthanide donor and a delayed reading to cut background.)

Method: This assay determines the ability of a test compound to inhibit Jarid1A, Jarid1B, JMJD2C, and JMJD2A demethylase activity. […] Baculovirus expressed JMJD2C (GenBank Accession #BC143571, AA 2-372) was purchased from BPS Bioscience (Cat#50105).
The ability of test compounds to inhibit the activity of JMJD2C was determined in 384-well plate format under the following reaction conditions: 0.3 nM JMJD2C, 300 nM H3K9me3-biotin labeled peptide (Anaspec cat #64360), 2 μM alpha-ketoglutaric acid in assay buffer of 50 mM HEPES, pH7.3, 0.005% Brij35, 0.5 mM TCEP, 0.2 mg/ml BSA, 50 μM sodium L-ascorbate, and 2 μM ammonium iron(II) sulfate. Reaction product was determined quantitatively by TR-FRET after the addition of detection reagent Phycolink Streptavidin-allophycocyanin (Prozyme) and Europium-anti-di-methylated histone H3 lysine 9 (H3K9me2) antibody (PerkinElmer) in the presence of 5 mM EDTA in LANCE detection buffer (PerkinElmer) at a final concentration of 50 nM and 1 nM, respectively.
The assay reaction was initiated by the following: 2 μl of the mixture of 900 nM H3K9me3-biotin labeled peptide and 6 μM alpha-ketoglutaric acid with 2 μl of 11-point serial diluted inhibitor in 3% DMSO were added to each well of the plate, followed by the addition of 2 μl of 0.9 nM JMJD2C to initiate the reaction. […]

On to `Cn1cnc(-c2cc(-c3nn[nH]n3)ccn2)c1-c1ccc(Cl)c(OCc2ccccc2)c1` [Example 161, 2-[5-(4-chloro-3-phenylmethoxyphenyl)-1-methylimidazol-4-yl]-4-(2H-tetrazol-5-yl)pyridine], for which the half-inhibitory concentration (IC50) lay in the range of 1 to 10 µM.

By IC50 is commonly meant the midpoint of a concentration-inhibition curve. Higher therefore signals weaker potency.
